Measurements: ChEMBL document CHEMBL1154363, “Heterocyclic 1,7-disubstituted indole sulfonamides are potent and selective human EP3 receptor antagonists” (Bioorg Med Chem Lett, 2009)
Activity calls are given as the source filed them. No cut-off for these calls is given here.

Tests used:
[1] = tested on: Platelet; test: Inhibition of PGE2/collagen-induced platelet aggregation human platelets rich plasma; type: functional
[2] = target: T1, Prostaglandin E2 receptor EP1 subtype (Homo sapiens, UniProt P34995); test: Binding affinity to human EP1 receptor by radioligand displacement assay
T1 sequence (P34995 whole entry): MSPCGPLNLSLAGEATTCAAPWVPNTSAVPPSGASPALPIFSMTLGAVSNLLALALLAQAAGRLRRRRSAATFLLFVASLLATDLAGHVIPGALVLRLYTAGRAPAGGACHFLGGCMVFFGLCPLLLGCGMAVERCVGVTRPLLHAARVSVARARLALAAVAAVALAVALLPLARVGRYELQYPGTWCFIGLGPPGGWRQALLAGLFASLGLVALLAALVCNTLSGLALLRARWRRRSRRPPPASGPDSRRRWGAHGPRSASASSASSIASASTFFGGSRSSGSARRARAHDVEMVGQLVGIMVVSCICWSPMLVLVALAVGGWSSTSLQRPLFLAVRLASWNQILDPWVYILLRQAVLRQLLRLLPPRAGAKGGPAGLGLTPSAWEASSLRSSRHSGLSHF

[3] = Metabolic stability in rat liver microsomes assessed as compound remaining after 30 mins; type: ADME, Microsome; details: read-out: Stability
[4] = target: Prostacyclin receptor (Homo sapiens, UniProt P43119); test: Binding affinity to human IP receptor by radioligand displacement assay
Sequence of Prostacyclin receptor (P43119 whole entry): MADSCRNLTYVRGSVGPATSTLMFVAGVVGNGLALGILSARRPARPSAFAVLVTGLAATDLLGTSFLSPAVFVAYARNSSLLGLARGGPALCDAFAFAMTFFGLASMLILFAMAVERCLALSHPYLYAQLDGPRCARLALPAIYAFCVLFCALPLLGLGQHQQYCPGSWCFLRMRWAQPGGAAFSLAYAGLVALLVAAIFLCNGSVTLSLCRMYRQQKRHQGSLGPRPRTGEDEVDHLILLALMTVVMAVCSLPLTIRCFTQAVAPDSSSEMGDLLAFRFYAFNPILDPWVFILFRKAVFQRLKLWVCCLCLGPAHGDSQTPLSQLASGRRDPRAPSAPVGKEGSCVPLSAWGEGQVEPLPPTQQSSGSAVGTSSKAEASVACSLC

[5] = tested on: Platelet; test: Inhibition of PGE2/collagen-induced platelet aggregation rat platelets rich plasma; type: functional
[6] = target: Prostaglandin E2 receptor EP2 subtype (Homo sapiens, UniProt P43116); test: Binding affinity to human EP2 receptor by radioligand displacement assay
Sequence of Prostaglandin E2 receptor EP2 subtype (P43116 whole entry): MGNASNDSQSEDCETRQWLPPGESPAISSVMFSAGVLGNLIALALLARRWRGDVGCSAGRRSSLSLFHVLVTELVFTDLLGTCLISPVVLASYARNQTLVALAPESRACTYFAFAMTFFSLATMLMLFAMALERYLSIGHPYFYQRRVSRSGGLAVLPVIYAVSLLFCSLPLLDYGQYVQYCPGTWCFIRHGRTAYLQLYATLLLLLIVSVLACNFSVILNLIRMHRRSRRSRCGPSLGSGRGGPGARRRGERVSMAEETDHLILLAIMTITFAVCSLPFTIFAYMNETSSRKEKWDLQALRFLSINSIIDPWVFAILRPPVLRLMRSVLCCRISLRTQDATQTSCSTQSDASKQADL

[7] = target: T2, Prostaglandin E2 receptor EP3 subtype (Homo sapiens, UniProt P43115); test: Displacement of [3H]PGE2 from human EP3 receptor
T2 sequence (P43115 whole entry): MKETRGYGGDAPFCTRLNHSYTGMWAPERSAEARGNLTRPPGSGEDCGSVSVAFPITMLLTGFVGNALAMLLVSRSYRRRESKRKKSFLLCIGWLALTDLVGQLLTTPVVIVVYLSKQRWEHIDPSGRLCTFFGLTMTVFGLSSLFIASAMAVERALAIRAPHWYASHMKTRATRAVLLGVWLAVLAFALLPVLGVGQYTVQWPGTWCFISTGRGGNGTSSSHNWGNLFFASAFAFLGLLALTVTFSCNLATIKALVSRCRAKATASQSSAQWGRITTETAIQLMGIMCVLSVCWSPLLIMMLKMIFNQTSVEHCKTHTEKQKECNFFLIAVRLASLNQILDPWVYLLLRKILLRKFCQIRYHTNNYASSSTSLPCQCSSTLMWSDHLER

[8] = Protein binding in plasma by HSA-HPLC method; type: ADME, cell-free; details: human, read-out: PB (converted)
[9] = target: T3, Prostaglandin E2 receptor EP3 subtype (Homo sapiens) (UniProt P43115); test: Displacement of [3H]PGE2 from human EP3 receptor in presence of 10% human serum
T3 sequence (whole entry): T2 sequence (P43115 whole entry)

[10] = target: T4, Prostaglandin E2 receptor EP4 subtype (Homo sapiens, UniProt P35408); test: Binding affinity to human EP4 receptor by radioligand displacement assay
T4 sequence (P35408 whole entry): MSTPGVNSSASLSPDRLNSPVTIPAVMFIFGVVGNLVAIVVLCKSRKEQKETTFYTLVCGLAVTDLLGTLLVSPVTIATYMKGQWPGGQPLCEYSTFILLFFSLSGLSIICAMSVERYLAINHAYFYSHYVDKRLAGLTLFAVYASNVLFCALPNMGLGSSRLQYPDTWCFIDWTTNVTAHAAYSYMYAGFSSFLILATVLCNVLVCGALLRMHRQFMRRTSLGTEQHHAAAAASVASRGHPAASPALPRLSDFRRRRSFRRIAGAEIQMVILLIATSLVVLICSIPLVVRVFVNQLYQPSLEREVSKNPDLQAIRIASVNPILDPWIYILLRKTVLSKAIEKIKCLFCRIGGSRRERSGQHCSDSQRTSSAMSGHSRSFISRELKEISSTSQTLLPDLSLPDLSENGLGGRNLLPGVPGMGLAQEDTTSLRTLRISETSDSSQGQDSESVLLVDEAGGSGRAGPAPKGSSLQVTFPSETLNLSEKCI

[11] = target: T5, Prostaglandin F2-alpha receptor (Homo sapiens, UniProt P43088); test: Binding affinity to human FP receptor by radioligand displacement assay
T5 sequence (P43088 whole entry): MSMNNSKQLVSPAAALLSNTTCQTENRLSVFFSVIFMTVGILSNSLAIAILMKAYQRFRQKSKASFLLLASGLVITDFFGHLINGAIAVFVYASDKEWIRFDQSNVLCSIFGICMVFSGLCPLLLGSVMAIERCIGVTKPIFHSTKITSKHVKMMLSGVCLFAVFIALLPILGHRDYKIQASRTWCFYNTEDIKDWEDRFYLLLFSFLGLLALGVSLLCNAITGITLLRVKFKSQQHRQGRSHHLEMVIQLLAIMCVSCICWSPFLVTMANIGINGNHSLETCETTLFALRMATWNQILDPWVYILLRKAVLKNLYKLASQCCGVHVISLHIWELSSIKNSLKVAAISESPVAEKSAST

[12] = Metabolic stability in human liver microsomes assessed as compound remaining after 30 mins; type: ADME, Microsome; details: read-out: Stability
[13] = target: T3, Prostaglandin E2 receptor EP3 subtype (Homo sapiens); test: Antagonist activity at human EP3 receptor at 0.1 uM by FLIPR assay; type: functional; parameters: scale not given: the % may be the effect or the level left
[14] = target: T3, Prostaglandin E2 receptor EP3 subtype (Homo sapiens); test: Antagonist activity at human EP3 receptor at 10 uM by FLIPR assay; type: functional; parameters: scale not given: the % may be the effect or the level left
[15] = target: T3, Prostaglandin E2 receptor EP3 subtype (Homo sapiens); test: Antagonist activity at human EP3 receptor at 1 uM by FLIPR assay; type: functional; parameters: scale not given: the % may be the effect or the level left
[16] = target: T5, Prostaglandin F2-alpha receptor; test: Activity at FP receptor at 0.1 uM by FLIPR assay
[17] = target: T6, Thromboxane A2 receptor (Homo sapiens) (UniProt P21731); test: Activity at TP receptor at 10 uM by FLIPR assay
T6 sequence (whole entry): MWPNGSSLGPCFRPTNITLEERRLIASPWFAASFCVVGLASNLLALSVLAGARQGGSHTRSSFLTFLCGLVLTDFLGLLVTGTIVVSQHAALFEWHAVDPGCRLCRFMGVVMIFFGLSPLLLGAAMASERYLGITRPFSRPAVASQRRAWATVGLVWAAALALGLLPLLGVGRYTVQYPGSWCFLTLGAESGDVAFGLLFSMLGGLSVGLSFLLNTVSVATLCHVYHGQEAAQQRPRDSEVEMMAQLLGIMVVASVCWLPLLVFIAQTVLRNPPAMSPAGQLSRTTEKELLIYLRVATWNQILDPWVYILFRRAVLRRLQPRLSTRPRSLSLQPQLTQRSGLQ

[18] = target: T6, Thromboxane A2 receptor (Homo sapiens); test: Activity at TP receptor at 1 uM by FLIPR assay
[19] = target: T6, Thromboxane A2 receptor (Homo sapiens); test: Activity at TP receptor at 0.1 uM by FLIPR assay
[20] = target: T5, Prostaglandin F2-alpha receptor; test: Activity at FP receptor at 1 uM by FLIPR assay
[21] = target: T4, Prostaglandin E2 receptor EP4 subtype; test: Activity at EP4 receptor at 10 uM by FLIPR assay
[22] = target: T7, Prostaglandin E2 receptor EP1 subtype (Homo sapiens) (UniProt P34995); test: Activity at EP1 receptor at 0.1 uM by FLIPR assay
T7 sequence (whole entry): T1 sequence (P34995 whole entry)

[23] = target: T7, Prostaglandin E2 receptor EP1 subtype (Homo sapiens); test: Activity at EP1 receptor at 1 uM by FLIPR assay
[24] = target: T4, Prostaglandin E2 receptor EP4 subtype; test: Activity at EP4 receptor at 0.1 uM by FLIPR assay
[25] = target: T7, Prostaglandin E2 receptor EP1 subtype (Homo sapiens); test: Activity at EP1 receptor at 10 uM by FLIPR assay
[26] = target: T5, Prostaglandin F2-alpha receptor; test: Activity at FP receptor at 10 uM by FLIPR assay
[27] = target: T4, Prostaglandin E2 receptor EP4 subtype; test: Activity at EP4 receptor at 1 uM by FLIPR assay
[28] = target: T3, Prostaglandin E2 receptor EP3 subtype (Homo sapiens); test: Full displacement of [3H]PGE2 from human EP3 receptor at 20 uM

With `Cc1cn(Cc2ccc(Cl)cc2Cl)c2c(-c3cc(NS(=O)(=O)c4ccc(F)c(F)c4)no3)cc(F)cc12` the IC50 [1] was 785 nM, the IC50 [2] was greater than 20000 nM and the remaining at 0.5 h [3] was 51%. It also gave an IC50 [4] greater than 20000 nM, an IC50 [5] of 3850 nM and an IC50 [6] of 19800 nM. The IC50 [7] was 1 nM, the fraction unbound [8] was 0.016 and the fold change (FC) [9] was 12. It also gave an IC50 [10] of 18600 nM, an IC50 [11] of 600 nM and a remaining at 0.5 h [12] of 46.8%.

For `Cc1cn(Cc2ccc3c(c2)OCCO3)c2c(-c3nnc(NS(=O)(=O)c4ccc(F)cc4)o3)cc(F)cc12`, the Activity [13] was 11% and the Activity [14] was 48%.

`COc1ccc(Cn2cc(C)c3cc(F)cc(-c4nnc(NS(=O)(=O)c5ccc(F)c(F)c5)o4)c32)cc1` showed an Activity [13] of 35% and an Activity [15] of 99%.

Work on `Cc1cn(Cc2ccc(Cl)cc2Cl)c2c(-c3nnc(NS(=O)(=O)c4ccc(Cl)c(Cl)c4)o3)cc(F)cc12` yielded a remaining at 0.5 h [3] of 44.8%, an Activity [16] of -15% and an Activity [17] of 56%. For the same compound, the Activity [18] was 0%, the Activity [19] was 3% and the Activity [20] was -2%. It also gave an IC50 [5] of 2860 nM, an Activity [21] of -7% and an Activity [22] of -2%. The Activity [23] was 16%, the Activity [24] was -26% and the Activity [25] was 100%. For the same compound, the IC50 [7] was 4 nM, the fraction unbound [8] was 0.028 and the fold change (FC) [9] was 3.5. For the same compound, the Activity [26] was -1%, the remaining at 0.5 h [12] was 72.1% and the Activity [27] was -22%.

With `Cc1cn(Cc2ccc(Cl)cc2Cl)c2c(-c3nnc(NC(=O)c4ccc(Cl)cc4Cl)o3)cc(F)cc12` the IC50 [7] was 1320 nM, the fold change (FC) [9] was 1 and the Activity [28] was “inactive”.

For `COc1cccc(Cn2cc(C)c3cc(F)cc(-c4nnc(NS(=O)(=O)c5ccc(F)cc5)o4)c32)c1`, the Activity [13] was 62% and the Activity [14] was 99%.
